The structures appear in SMILES notation. Where two headings read alike, the source gives them in different places.

One data set has as its system CEM cells. The data set can be described thus: Intrinsic toxicity of the test compound in CEM cells without virus (MTT). Format: cell-based. As to conditions: Table 14, medium without virus, 7 days. From the text:
Methods 20, 309-321 (1988).

The next data set concerns HIV-1. Kind of data set: HIV inhibition assay of acutely infected CEM cells (tetrazolium based colorimetric, MTT). As to conditions: Human immunodeficiency virus 1, CCRF-CEM, 168 h.
For another data set, the target named is T1, HIV protease (Human immunodeficiency virus type 1 group M subtype B, UniProt P04585).
T1 construct: HIV protease is diluted in the assay buffer to a final enzyme concentration of 12.3 nanomolar, based on a molecular weight of 10,780
Kind of data set: biochemical. It is filed as biochemical. On the procedure:
The enzyme method is described below. The substrate is 2-aminobenzoyl-Ile-Nle-Phe(p-NO2)-Gln-ArgNH2. The positive control is MVT-101 (Miller, M. et al, Science, 246, 1149 (1989)] The assay conditions are as follows:
The above described substrate is dissolved in DMSO, then diluted 10 fold in assay buffer. Final substrate concentration in the assay is 80 µM.
HIV protease is diluted in the assay buffer to a final enzyme concentration of 12.3 nanomolar, based on a molecular weight of 10,780.
The final concentration of DMSO is 14% and the final concentration of glycerol is 18%. The test compound is dissolved in DMSO and diluted in DMSO to 10x the test concentration; 10µl of the enzyme preparation is added, the materials mixed and then the mixture is incubated at ambient temperature for 15 minutes. The enzyme reaction is initiated by the addition of 40µl of substrate. The increase in fluorescence is monitored at 4 time points (0, 8, 16 and 24 minutes) at ambient temperature. Each assay is carried out in duplicate wells.

The mark [1] stands for this setting: IC50, Table 13, 12.3 nanomolar enzyme, 80 µM substrate, pH 6.4, ambient temperature.
The mark [2] stands for this setting: IC50, Table 14, above-described enzyme assay.
Where [3] appears, read: Table 13, 12.3 nanomolar enzyme, 80 µM substrate, pH 6.4, ambient temperature, read-out: IC50.

Method for HIV-1: The HIV inhibition assay method of acutely infected cells is an automated tetrazolium based colorimetric assay essentially that reported by Pauwles et al, J. Virol. […] Assays were performed in 96-well tissue culture plates. CEM cells, a CD4^+ cell line, were grown in RPMI-1640 medium (Gibco) supplemented with a 10% fetal calf serum and were then treated with polybrene (2µg/ml). An 80 µl volume of medium containing 1 x 10^4 cells was dispensed into each well of the tissue culture plate. To each well was added a 100µl volume of test compound dissolved in tissue culture medium (or medium without test compound as a control) to achieve the desired final concentration and the cells were incubated at 37°C for 1 hour. A frozen culture of HIV-1 was diluted in culture medium to a concentration of 5 x 10^4 TCID50 per ml (TCID50 = the dose of virus that infects 50% of cells in tissue culture), and a 20µL volume of the virus sample (containing 1000 TCID50 of virus) was added to wells containing test compound and to wells containing only medium (infected control cells). Several wells received culture medium without virus (uninfected control cells). Likewise, the intrinsic toxicity of the test compound was determined by adding medium without virus to several wells containing test compound.
In experiments 2 and 4 the final concentrations of test compounds were 1, 10, 100 and 500 µg/ml. Either azidothymidine (AZT) or dideoxyinosine (ddI) was included as a positive drug control. […] DMSO was added to all control wells at an appropriate concentration.
Following the addition of virus, cells were incubated at 37°C in a humidified, 5% CO2 atmosphere for 7 days. Test compounds could be added on days 0, 2 and 5 if desired. On day 7, post-infection, the cells in each well were resuspended and a 100µl sample of each cell suspension was removed for assay. A 20µL volume of a 5 mg/ml solution of 3-(4,5-dimethylthiazol-2-yl)-2,5-diphenyltetrazolium bromide (MTT) was added to each 100µL cell suspension, and the cells were incubated for 4 hours at 27°C in a 5% CO2 environment. […] To each sample was added 100µl of 10% sodium dodecylsulfate in 0.01 N HCl to lyse the cells, and samples were incubated overnight. The absorbance at 590 nm was determined for each sample using a Molecular Devices microplate reader. Absorbance values for each set of wells is compared to assess viral control infection, uninfected control cell response as well as test compound by cytotoxicity and antiviral efficacy.

Molecule `CCCCNC(=O)N(CC(C)C)C[C@@H](O)[C@H](Cc1ccccc1)NC(=O)[C@H](CC(N)=O)NC(=O)OCc1ccccc1` yielded a TD50 in the data set on CEM cells of 170 to 180 µM. In addition, the half-maximal effective concentration (EC50) with HIV-1 was found to be 17000 nM.
As for `CC(C)CCN(C[C@@H](O)[C@H](Cc1ccccc1)NC(=O)[C@H](CC(N)=O)NC(=O)OCc1ccccc1)C(=O)NC(C)(C)C` (relative stereo) [Compound 5a, Butanediamide, N^1-[3-[[[(1,1-dimethylethyl)amino]carbonyl](3,3-dimethylpropyl)amino]-2-hydroxy-1-(phenylmethyl)propyl]-2-[(N-benzyloxycarbonyl)amio], [1S-[1R*(R*),2S*]]-], at HIV protease (Table 13, 12.3 nanomolar enzyme, 80 µM substrate, pH 6.4, ambient temperature), the 50% inhibitory concentration (IC50) is 18 nM.
Turning to `CC(C)CN(CC(O)C(Cc1ccccc1)NC(=O)C(CC(N)=O)NC(=O)c1ccc2ccccc2n1)C(=O)NC(C)(C)C` (stereo not drawn) [Compound 1b, Butanediamide, N^1-[3-[[[(1,1-dimethylethyl)amino]carbonyl](2-methylpropyl)amino]-2-hydroxy-1-(phenylmethyl)propyl]-2-[(2-quinolinylcarbonyl)amino]-, [1S-[1R*(R*),2S*]]-], the TD50 in the data set with CEM cells worked out at 16 µM. The molecule further came in with a concentration for a half-maximal effect (EC50) in the data set on HIV-1 of 10 nM. In addition, the IC50 at HIV protease (setting [1]) was determined as 7.1 nM; on HIV protease (setting [2]), 7 nM.
Turning to `CC(C)CCN(C[C@@H](O)[C@H](Cc1ccccc1)NC(=O)[C@H](CC(N)=O)NC(=O)OCc1ccccc1)C(=O)NC(C)(C)C` [Compound 2a, Butanediamide, N^1-[3-[[[(1,1-dimethylethyl)amino]carbonyl](3-methylbutyl)amino]-2-hydroxy-1-(phenylmethyl)propyl]-2-[(N-benzyloxycarbonyl)amino], [1S-[1R*(R*),2S*]]-], on HIV protease (setting [3]), the half-maximal inhibitory concentration (IC50) came out at 13.4 nM.
Molecule `CC(C)CCN(CC(O)C(Cc1ccccc1)NC(=O)C(CC(N)=O)NC(=O)c1ccc2ccccc2n1)C(=O)NC(C)(C)C` (stereo not drawn) [Compound 2b, Butanediamide, N^1-[3-[[[(1,1-dimethylethyl)amino]carbonyl](3-methylbutyl)amino]-2-hydroxy-1-(phenylmethyl)propyl]-2-[(2-quinolinylcarbonyl)amino]-, [1S-[1R*(R*),2S*]]-] registered a half-maximal inhibitory concentration (IC50) against HIV protease (setting [1]) of 3.2 nM.
Regarding `CC(C)(C)NC(=O)N(Cc1ccc2ccccc2c1)C[C@@H](O)[C@H](Cc1ccccc1)NC(=O)[C@H](CC(N)=O)NC(=O)OCc1ccccc1` [Compound 3a, Butanediamide, N^1-[3-[[[(1,1-dimethylethyl)amino]carbonyl](2-naphthylmethyl)amino]-2-hydroxy-1-(phenylmethyl)propyl]-2-[(N-benzyloxycarbonyl)amino]-, [1S-[1R*(R*), 2S*]]-], at HIV protease (setting [3]), the IC50 worked out at 31 nM.
On the same count and under the same terms, the result for `CC(C)(C)NC(=O)N(Cc1ccc2ccccc2c1)CC(O)C(Cc1ccccc1)NC(=O)C(CC(N)=O)NC(=O)c1ccc2ccccc2n1` (stereo not drawn) [Compound 3b, Butanediamide, N^1-[3-[[[(1,1-dimethylethyl)amino]carbonyl](2-naphthylmethyl)amino]-2-hydroxy-1-(phenylmethyl)propyl]-2-[(2-quinolinylcarbonyl)amino]-, [1S-[1R*(R*),2S*]]-] reads 2.9 nM.
Same read-out and setting: next, `CC(C)(C)NC(=O)N(CCc1ccccc1)CC(O)C(Cc1ccccc1)NC(=O)C(CC(N)=O)NC(=O)OCc1ccccc1` (stereo not drawn) [Compound 4a, Butanediamide, N^1-[3-[[[(1,1-dimethylethyl)amino]carbonyl](2-phenylethyl)amino]-2-hydroxy-1-(phenylmethyl)propyl]-2-[(N-benzyloxycarbonyl)amino]-, [1S-[1R*(R*),2S*]]-]: 70 nM.
In the data set with CEM cells, `CC(C)(C)NC(=O)N(CCc1ccccc1)CC(O)C(Cc1ccccc1)NC(=O)C(CC(N)=O)NC(=O)c1ccc2ccccc2n1` (stereo not drawn) [Compound 4b, Butanediamide, N^1-[3-[[[(1,1-dimethylethyl)amino]carbonyl](2-phenylethyl)amino]-2-hydroxy-1-(phenylmethyl)propyl]-2-[(2-quinolinylcarbonyl)amino]-, [1S-[1R*(R*),2S*]]-] gave a TD50 of 13 µM. The molecule also displayed an EC50 in the data set on HIV-1 of 28 nM. For the same molecule, the half-maximal inhibitory concentration (IC50) at HIV protease (setting [1]) and on HIV protease (setting [2]) was 10 nM throughout.
As to `CC(C)CCN(CC(O)C(Cc1ccccc1)NC(=O)C(CC(N)=O)NC(=O)c1ccc2ccccc2n1)C(=O)NC(C)(C)C` (stereo not drawn) [Compound 5b, Butanediamide, N^1-[3-[[[(1,1-dimethylethyl)amino]carbonyl](3,3-dimethylpropyl)amino]-2-hydroxy-1-(phenylmethyl)propyl]-2-[(2-quinolinylcarbonyl)amino]-, [1S-[1R*(R*),2S*]]-], the IC50 on HIV protease (setting [3]) stood at 3.7 nM.
Take `CC(C)CCN(CC(O)C(Cc1ccccc1)NC(=O)C(C)CS(C)(=O)=O)C(=O)NC(C)(C)C` (stereo not drawn) [Compound 6, Propanamide, N-[3-[[[(1,1-dimethylethyl)amino]carbonyl](3-methylbutyl)amino]-2-hydroxy-1-(phenylmethyl)propyl]-2-methyl-3-(methylsulfonyl)-, [1S-[1R*(R*), 2S*]]-]: on HIV protease (setting [3]), the concentration for half-maximal inhibition (IC50) turned out to be 29 nM.
Turning to `CC(=O)NCC(C)C(=O)NC(Cc1ccccc1)C(O)CN(CCC(C)C)C(=O)NC(C)(C)C` (stereo not drawn) [Compound 7, Propanamide, 3-(acetylamino)-N-[3-[[[(11,-dimethylethyl)amino]carbonyl](3-methylbutyl)amino]-2-hydroxy-1-(phenylmethyl)propyl]-2-methyl-, [1S-[1R*(S*),2S*]]-], the IC50 at HIV protease (setting [3]) was found to be 100 nM.
At HIV protease (setting [1]), `COc1ccc(COC(=O)NC[C@@H](C)C(=O)N[C@@H](Cc2ccccc2)[C@H](O)CN(CCC(C)C)C(=O)NC(C)(C)C)cc1` [Compound 8, Propanamide, 3-(4-methoxybenzyloxy-carbonyl)amino-N-[3-[[[(11,-dimethylethyl)amino]carbonyl](3-methylbutyl)amino]-2-hydroxy-1-(phenylmethyl)propyl]-2-methyl-, [1S-[1R*(S*),2S*]]-] came in with an IC50 of 6 nM.
`NC(=O)CC(NC(=O)c1ccc2ccccc2n1)C(=O)NC(Cc1ccccc1)C(O)CN(Cc1ccc(F)cc1)C(=O)N1CCCC1` (stereo not drawn) [Compound 9, Butanediamide, N^1-[2-hydroxy-3-[(4-fluorophenylmethyl)(1-pyrrolidinylcarbonyl)amino]-1-(phenylmethyl)propyl]-2-[(2-quinolinylcarbonyl)amino]-, [1S-[1R*(R*),2S*]]-]: the IC50 at HIV protease (setting [3]) was 7 nM.
Still for that read-out and setting: the result for `CC(C)CCN(C[C@@H](O)[C@H](Cc1ccccc1)NC(=O)[C@H](C)C(C)(C)C(N)=O)C(=O)NC(C)(C)C` [Compound 10, Butanediamide, N^1-[3-[[[(1,1-dimethylethyl)amino]carbonyl](3-methylbutyl)amino]-2-hydroxy-1-(phenylmethyl)propyl]-2,3,3-trimethyl-, [1S-[1R*(2S*),2S*]]-] reads 12 nM.
Take `CC(C)CCN(C[C@@H](O)[C@H](Cc1ccccc1)NC(=O)[C@H](C)C(C)(C)C(=O)O)C(=O)NC(C)(C)C` [Compound 11, Butanoic acid, 4-[[3-[[[(1,1-dimethylethyl)amino]carbonyl] (3-methylbutyl)amino]-2-hydroxy-1-(phenylmethyl)propyl]amino-2,2,3-trimethyl-4-oxo-, [1S-[1R*(3S*), 2S*]]-]: the IC50 on HIV protease (setting [1]) came to 8 nM.
Consider `CC(=O)N[C@H](C(=O)N[C@@H](Cc1ccccc1)[C@H](O)CN(CCC(C)C)C(=O)NC(C)(C)C)C(C)(C)C` [Compound 12, Butaneamide,2-(acetylamino)-N-[3-[[[(1,1-dimethylethyl)amino]-carbonyl](3-methylbutyl)amino]-2-hydroxy-1-(phenylmethyl)propyl]-3,3-dimethyl-, [1S-[1R*(R*),2S*]]-], for which the IC50 at HIV protease (setting [3]) was determined as 18 nM.
In the data set with CEM cells, `CCCCNC(=O)N(CC(C)C)C[C@@H](O)[C@H](Cc1ccccc1)NC(=O)[C@H](CC(N)=O)NC(=O)c1ccc2ccccc2n1` [butanediamide N^1[3-[[[n-butylamino]carbonyl](2-methylpropyl)amino]-2-hydroxy-1-(phenylmethyl)propyl]-2-[(2-quinolinylcarbonyl)amino]-[1S-[1R*(R*), 2S*]]-.] came in with a TD50 of 53 µM. In the data set with HIV-1, this molecule had an EC50 of 26 nM.
